We go through one molecule from ChEMBL document CHEMBL6083237, “Adenanthin exhibits anti-inflammatory effects by covalently targeting the p65 subunit in the NF-κB signaling pathway” (Eur J Med Chem, 2024).

For orientation: IC50 means the midpoint of a concentration-inhibition curve.

Experiment [1] has as its target T1, Transcription factor p65 (Homo sapiens, UniProt Q04206). Kind of experiment: Binding affinity to recombinant FLAG-tagged p65 (unknown origin) expressed in HEK293T cells assessed as retention time of carbamidomethylation on Cys38 residue of C38EGRSAGSIPGERSTDTTK56 with m/z 814.7165 measured following LysC digestion at 10 uM incubated for 3 hrs by HCD/EThcD based mass spectrometry. Format: cell-based.

Experiment [2] deals with T1, Transcription factor p65. Kind of experiment: Binding affinity to recombinant FLAG-tagged p65 (unknown origin) expressed in HEK293T cells assessed as retention time of carbamidomethylation on Cys38 residue of C38EGRSAGSIPGERSTDTTK56 with m/z 814.7164 measured following LysC digestion at 10 uM incubated for 3 hrs by HCD/EThcD based mass spectrometry. Format: cell-based.

For experiment [3], the system named is RAW264.7. Briefly: Inhibition of p65 phosphorylation in LPS-stimulated mouse RAW264.7 cells at 1 to 10 uM incubated for 6 hrs by wester blot analysis. Format: cell-based. The conditions noted are these: dose 1-10 µM.
Experiment [4] deals with T2, NF-kappa-B inhibitor alpha (Mus musculus) (UniProt Q9Z1E3).
T2 sequence (whole entry): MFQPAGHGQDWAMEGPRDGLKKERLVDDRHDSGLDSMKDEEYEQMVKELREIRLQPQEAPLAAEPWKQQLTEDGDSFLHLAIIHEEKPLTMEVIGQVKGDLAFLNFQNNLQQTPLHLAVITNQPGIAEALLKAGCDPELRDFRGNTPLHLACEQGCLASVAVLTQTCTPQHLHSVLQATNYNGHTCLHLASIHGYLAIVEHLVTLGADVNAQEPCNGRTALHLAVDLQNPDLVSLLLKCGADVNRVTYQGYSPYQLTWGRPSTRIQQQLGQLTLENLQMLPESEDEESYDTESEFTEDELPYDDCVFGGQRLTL
Briefly: Inhibition of IkappaB alpha phosphorylation in LPS-stimulated mouse RAW264.7 cells at 1 to 10 uM incubated for 6 hrs by western blot analysis. Type of experiment: cell-based. The conditions noted are these: dose 1-10 µM. On the technique in general: A western blot detects proteins with antibodies after separation by electrophoresis.

Experiment [5] has as its system RAW264.7. Briefly: Inhibition of p65 nuclear translocation in LPS-stimulated mouse RAW264.7 cells at 1 to 10 uM incubated for 6 hrs by western blot analysis. Format: cell-based. The conditions noted are these: dose 1-10 µM.
For experiment [6], the system named is RAW264.7. Briefly: Inhibition of NF-kappaB signaling pathway in mouse RAW264.7 cells assessed as decrease in COX-2 protein expression at 10 to 75 uM incubated for 6 hrs by western blot analysis. Type of experiment: cell-based. The conditions noted are these: dose 10-75 µM.
For experiment [7], the system named is RAW264.7. Kind of experiment: Inhibition of NF-kappaB signaling pathway in mouse RAW264.7 cells assessed as decrease in iNOS protein expression at 10 to 75 uM incubated for 6 hrs by western blot analysis. Format: cell-based. The conditions noted are these: dose 10-75 µM.
Experiment [8] addresses T1, Transcription factor p65. Briefly: Displacement of biotin-labeled p65 binding oligonucleotides from p65 (unknown origin) overexpressed in HEK293T cell nuclear extract incubated for 2 hrs by electrophoretic mobility shift assay. Format: subcellular, Nucleus. In general terms: In EMSA bound probe runs differently from free probe, usually more slowly.
Experiment [9] in a line: Displacement of biotin-labeled p65 binding oligonucleotides from p65/p65-C38A mutant (unknown origin) overexpressed in HEK293T cell nuclear extract incubated for 2 hrs by electrophoretic mobility shift assay. Format: subcellular, Homo sapiens, Nucleus.
Experiment [10] has as its system HEK-293T. Kind of experiment: Antiproliferative activity against HEK293T cells assessed as inhibition of cell proliferation incubated for 72 hrs by Alamar Blue dye based fluorescence analysis. Type of experiment: functional. The conditions noted are these: Homo sapiens. (Resazurin is reduced to fluorescent resorufin, in cell work by metabolically active cells.)
The test system of experiment [11] is HEK-293T. Briefly: Antiproliferative activity against HEK293T cells overexpressing p65 assessed as inhibition of cell proliferation incubated for 72 hrs by Alamar Blue dye based fluorescence analysis. The settings on record: Homo sapiens. Format: functional.
The test system of experiment [12] is HEK-293T. Briefly: Antiproliferative activity against HEK293T cells overexpressing p65 C38A mutant assessed as inhibition of cell proliferation incubated for 72 hrs by Alamar Blue dye based fluorescence analysis. Type of experiment: functional. The conditions noted are these: Homo sapiens.
The nature of experiment [13]: Ratio of IC50 for antiproliferative activity against HEK293T cells overexpressing p65 C38A mutant to IC50 for HEK293T cells overexpressing p65. Format: functional, Homo sapiens.
Experiment [14] has as its system HEK-293T. Briefly: Antiproliferative activity against mutant HEK293T cells overexpressing p65 C38A mutant assessed as inhibition of cell proliferation incubated for 72 hrs by Alamar Blue dye based fluorescence analysis. Type of experiment: functional. The conditions noted are these: Homo sapiens.
Experiment [15] can be described thus: Ratio of IC50 for antiproliferative activity against mutant HEK293T cells overexpressing p65 C38A mutant to IC50 for antiproliferative activity against HEK293T cells. Format: functional, Homo sapiens.
Experiment [16] concerns the target T1, Transcription factor p65. Kind of experiment: Binding affinity to recombinant FLAG-tagged p65 (unknown origin) expressed in HEK293T cells assessed as 490.2203 Da modification on Cys38 residue of C38EGRSAGSIPGERSTDTTK56 measured following LysC digestion at 10 uM incubated for 3 hrs by HCD/EThcD based mass spectrometry. Type of experiment: cell-based.

Activity calls are given as the source filed them. The rule behind the calls is not given here.

T1 sequence (Q04206 whole entry): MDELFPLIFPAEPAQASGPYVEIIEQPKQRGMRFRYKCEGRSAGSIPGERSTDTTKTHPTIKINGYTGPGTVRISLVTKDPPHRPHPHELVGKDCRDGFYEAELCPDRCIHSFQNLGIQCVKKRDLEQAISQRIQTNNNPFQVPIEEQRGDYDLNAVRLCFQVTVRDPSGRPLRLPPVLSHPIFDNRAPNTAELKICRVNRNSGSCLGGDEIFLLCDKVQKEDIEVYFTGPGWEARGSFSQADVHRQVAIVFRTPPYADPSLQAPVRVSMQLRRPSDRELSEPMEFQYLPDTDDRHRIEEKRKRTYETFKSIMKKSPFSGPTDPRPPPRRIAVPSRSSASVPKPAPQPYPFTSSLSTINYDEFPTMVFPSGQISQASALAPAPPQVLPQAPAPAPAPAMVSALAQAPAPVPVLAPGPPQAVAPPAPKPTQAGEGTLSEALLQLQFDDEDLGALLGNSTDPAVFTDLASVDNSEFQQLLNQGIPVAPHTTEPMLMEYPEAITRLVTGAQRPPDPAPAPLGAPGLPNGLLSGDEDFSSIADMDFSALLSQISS

As for `C=C1C(=O)[C@]23C[C@H]1C[C@H](OC(C)=O)[C@H]2[C@]1(C)[C@@H](OC(C)=O)C[C@H](O)C(C)(C)[C@H]1C(=O)[C@@H]3OC(C)=O` [ADENANTHIN], the Retention time worked out at 14.4 min on Transcription factor p65 [1] and 14.6 min on Transcription factor p65 [2]. Moreover, the inhibition entry (in the experiment with RAW264.7 [3]; in experiment [4]) was “Dose-dependent-effect” throughout. Besides, the inhibition result in the experiment with RAW264.7 [5], with RAW264.7 [6] and with RAW264.7 [7] was “Active” throughout. Further, the IC50 on Transcription factor p65 [8] was roughly 40 µM; in [9], roughly 100 µM; in the experiment on HEK-293T [10], 0.72 µM; in the experiment on HEK-293T [11], 0.81 µM; in the experiment with HEK-293T [12], 2 µM; in the experiment with HEK-293T [14] it was 9.94 µM. In addition, the “Ratio IC50” value in experiment [13] is given as 2; in experiment [15], 10. In addition, the result on Transcription factor p65 [16] was Active.
